Results reported in US7985412B2, “Method of monitoring/controlling thysanoptera” (Keele University, priority 2004, dated 2011).
Counter-ions that a name gives are not always drawn.

Experiments:
[1] = system: female Western Flower Thrips; assay: Y-tube olfactometer bioassay; assay type: in vivo, Frankliniella occidentalis; details: for effect upon female Western Flower Thrips (in words): doses of 1 ng, and 100 ng; for attractant effect (in words): female Western Flower Thrips
Experimental: Thrips were originally obtained from a commercial glasshouse and then maintained on pot chrysanthemums (Dendranthema x grandiflora (Ramat.) Kitamura) at 25° C. under a repeated cycle consisting of 18 hours of light and 6 hours of dark. The culture on chrysanthemums supplied mixed-age adult females, which were attracted to adult males in olfactometer bioassays, so these were used in the bioassays.
The Y-tube has two branches at an angle of 90° and a stem, which are all 60 mm long with internal diameters of 5 mm. The Y-tube was held horizontal and illuminated from above by four fluorescent tubes (950 lux). It was screened by a 10 cm high matt-black card wall, forming a 280 mm×280 mm square, to minimise any external visual influences. A 50 ml round glass flask with a Drechsel head was inserted in the tube before each branch and a semi-circle of filter paper (Whatman No. 1, diameter 42.5 mm), moistened with water, was placed in each to humidify the air. Connections between tubes are either made with brass swagelock connectors or by inserting narrower tubes into slightly wider tubes. All the glassware and the glass wool were rinsed thoroughly in warm water with Teepol ‘L’ neutral detergent (BDH Laboratory Supplies, Poole), then in distilled water, then in acetone, and left to dry overnight in an oven at 200° C. before each experiment. The connecting Teflon tubing and the swagelock connectors were rinsed thoroughly in warm water with Teepol ‘L’ neutral detergent, then in distilled water, then in hexane, and left to dry overnight in a fume cupboard before each run of an experiment.
Zero-grade clean air from a cylinder (supplied by British Oxygen Corporation, Manchester) was passed through an activated charcoal filter and then along Teflon tubes to two flow meters (Supelco, Sigma-Aldrich, Poole) that regulated the air flow to the two branches of a glass Y-tube. The rate in the two branches was 50 mm s^−1 (59 ml min^−1) and in the stem was 100 mm s^−1 (118 ml min^−1) and were checked with a bubble flow meter.
Adults were placed one at a time in the stem of the Y-tube, by transferring them with a fine paintbrush, and allowed to walk up the Y-tube. A choice was recorded when they first crossed a line 20 mm down either branch from the junction of the “Y”. If a choice was not made within 3 min, it was recorded as “no choice” and excluded from the analysis. Each individual was tested twice to provide two successive choices. The sample flasks, connecting tubing and Y-tube were reversed after every 5 individuals. This reduced possible bias from external influences. Each experiment consisted of 1 to 3 runs on separate days to reduce possible bias from external influences. A total of 25 individuals were tested in each run of an experiment, which lasted about 2 h. Experiments were conducted at 25±1° C.
At the start of each run, 0.2 ml of distilled water was placed on the filter paper in each flask. […] The filter papers were removed and replaced with fresh water and test and control substances every time the equipment was reversed.
It was shown that there was no preference in thrips response by testing mixed-age females (in the absence of a test composition) in the Y-tube olfactometer on 3 separate days. The apparatus was set up as before, but with only water and hexane in each flask. Since the arms of the Y-tube were reversed by rotating the stem by 180° after every five individuals, the difference in the number of choices between left and right and between arm A and arm B could be tested separately. There was no preference to the left or right or for arm A or arm B thus establishing that the apparatus was unbiased.
In each case 25 adult females were tested in 2 or 3 separate runs. The compound was applied in 1 μl hexane.
Example 1 was repeated using each of isobornyl 2-methyl butanoate, isobornyl pivalate and lavandulyl valerate in amounts of 0.1 ng. […]

[2] = system: F. occidentalis; assay: Field trial: catch on blue sticky traps in sweet pepper greenhouses; assay type: in vivo, Frankliniella occidentalis
Experimental: The biological activity of neryl (S)-2 methylbutanoate was tested in commercial crops of sweet pepper (var. Habana) grown in greenhouses at Zamora (37°42.945′N, 0°57.720′W) near Torre Pacheco in the Murcia region of Spain. The crops were about 110 cm high, planted in rows 1 m apart, and were naturally infested with a low level of F. occidentalis. Three 2-day long experiments were carried out, alternating between two nearby houses, each with an area of about 6500 m^2.
The compound was released from rubber septa (6.3 mm diameter×10.8 mm long) (100706; Aldrich, UK) that had been preextracted in hexane-dichloromethane and dried in an oven at 50° C. Septa were loaded with solutions of the test compound in hexane or with hexane alone (control). After evaporation of the solvent, the rubber septa were stored in aluminum foil bags. They were placed on traps in the field within 2 hr of preparation.
Blue plastic rectangular takitraps (10×25 cm) (Syngenta Bioline, UK), coated on both surfaces with insect glue, were suspended vertically with the base about 10 cm above crop height, by attaching them to crop support strings with a wooden clothes peg. One rubber septum was stuck to the center of the north-facing side of each trap.
Each experiment was laid out in a randomized complete block design with 20 blocks and one replicate per block. Traps were placed about 3.4 m apart down rows of sweet pepper plants with 16 m between each row of traps. The experiment compared two doses, 30 ng and 30 μg, of neryl (S)-2-methylbutanoate with a control.
Thrips caught on the blue sticky traps were examined under a stereoscopic microscope to identify their sex and to distinguish F. occidentalis from about 2% of the thrips that were other species (Thrips spp., aeolothripids, and phlaeothripids). The data were log10(x+1) transformed and analyzed by two-way ANOVA for females, males, and both sexes combined. Multiple comparisons with the control used Dunnett's multiple comparison test. Statistical analysis was carried out with Minitab 14 (Minitab Inc., Pennsylvania, USA).

[3] = 0.1 ng, filter paper placed in Teflon tube instead of glass flask

CCC(C)C(=O)OC1CC2CCC1(C)C2(C)C (stereo not shown) [Isobornyl 2-methyl butanoate, isobornyl 2-methyl butanoate]
Preference (%) [1, 3]: 72.9%

CC[C@H](C)C(=O)OC/C=C(/C)CCC=C(C)C [N(S)2MB, neryl (S)-2-methylbutanoate]
Mean catch over 2 days ± SE (N = 20) ([2]; Both sexes, high dose 30 μg on rubber septum): 22.2 ± 2.0 | Mean catch over 2 days ± SE (N = 20) ([2]; Both sexes, low dose 30 ng on rubber septum): 18.7 ± 1.7 ns | Mean catch over 2 days ± SE (N = 20) ([2]; Females, high dose 30 μg on rubber septum): 9.1 ± 1.2 | Mean catch over 2 days ± SE (N = 20) ([2]; Females, low dose 30 ng on rubber septum): 6.8 ± 0.7 ns | Mean catch over 2 days ± SE (N = 20) ([2]; Males, high dose 30 μg on rubber septum): 13.2 ± 1.1 | Mean catch over 2 days ± SE (N = 20) ([2]; Males, low dose 30 ng on rubber septum): 11.9 ± 1.2 ns | effect on trap catches (in words) ([2]; dose of 30 μg, both sexes attracted): increased trap catches significantly

CC(=O)OC/C=C(/C)CCC=C(C)C [Neryl Acetate, reference compound]
effect upon female Western Flower Thrips (in words) [1]: no effect

CC(C)=CCC/C(C)=C\COC=O [Neryl Formate, reference compound]
effect upon female Western Flower Thrips (in words) [1]: no effect

CC(C)(C)C(=O)OC1CC2CCC1(C)C2(C)C (stereo not shown) [isobornyl pivalate]
Preference (%) [1, 3]: 61.3%

CCCCC(=O)OC1CC2CCC1(C)C2(C)C (stereo not shown) [isobornyl valerate]
Preference (%) ([1]; 0.002 ng compound in 1 μl hexane, adult females, combined runs): 64.8% | Preference (%) ([1]; 0.02 ng compound in 1 μl hexane, adult females, combined runs): 73.3% | Preference (%) ([1]; 0.1 ng compound in 1 μl hexane, adult females, combined runs): 76.9% | Preference (%) ([1]; 0.2 ng compound in 1 μl hexane, adult females, combined runs): 79.8% | Preference (%) ([1]; 2 ng compound in 1 μl hexane, adult females, combined runs): 60.3% | attractant effect (in words) ([1]; 0.002-2 ng (Table 1) or 0.1 ng (Example 2)): strong attractant

C=C(C)C(CC=C(C)C)COC(C)=O (stereo not shown) [lavandulyl acetate, reference compound]
attractant effect (in words) ([1]; doses of 0.1 ng, 1 ng, 10 ng, 100 ng and 1000 ng): no attractant effect

C=C(C)C(CC=C(C)C)COC(=O)CCCC (stereo not shown) [lavandulyl valerate]
Preference (%) [1, 3]: 79.2%
